From the supplement of paper PMC10307832

Legend:
Experiment in all cases: relative viability (nuclei count vs DMSO), 5 days (fraction); higher = more cells survive
Alisertib + Vorinostat = compound: COc1cc(Nc2ncc3c(n2)-c2ccc(Cl)cc2C(c2c(F)cccc2OC)=NC3)ccc1C(=O)O [Alisertib] + O=C(CCCCCCC(=O)Nc1ccccc1)NO [Vorinostat] (partner 1 µM)
Outline: (§1)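 The day after seeding in 1536-well plates, lung cancer cell lines were treated by pin tool with a single drug, or with a fixed anchor-drug dose together with five library-drug doses (not always all listed) in √10 steps. After 5 days, a combined fix-and-stain solution (final 0.05% Triton X-100, 1% formaldehyde, 1 ug/ml Hoechst) was added. Nuclei counted on 4× images gave relative viability as treated counts over vehicle counts, reported as the median of duplicate plates.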

Alisertib + Alpelisib = compound: COc1cc(Nc2ncc3c(n2)-c2ccc(Cl)cc2C(c2c(F)cccc2OC)=NC3)ccc1C(=O)O [Alisertib] + Cc1nc(NC(=O)N2CCC[C@H]2C(N)=O)sc1-c1ccnc(C(C)(C)C(F)(F)F)c1 [Alpelisib] (partner 2 µM)
Outline: as §1

Alisertib + Navitoclax = compound: COc1cc(Nc2ncc3c(n2)-c2ccc(Cl)cc2C(c2c(F)cccc2OC)=NC3)ccc1C(=O)O [Alisertib] + CC1(C)CCC(c2ccc(Cl)cc2)=C(CN2CCN(c3ccc(C(=O)NS(=O)(=O)c4ccc(N[C@H](CCN5CCOCC5)CSc5ccccc5)c(S(=O)(=O)C(F)(F)F)c4)cc3)CC2)C1 [Navitoclax] (partner 0.5 µM)
Outline: as §1

Alisertib + Linsitinib = compound: COc1cc(Nc2ncc3c(n2)-c2ccc(Cl)cc2C(c2c(F)cccc2OC)=NC3)ccc1C(=O)O [Alisertib] + C[C@]1(O)C[C@@H](c2nc(-c3ccc4ccc(-c5ccccc5)nc4c3)c3c(N)nccn32)C1 [Linsitinib] (partner 1 µM)
Outline: as §1

| Cell Line | relative viability (Alisertib + Vorinostat; first compound 0.005 µM) | relative viability (Alisertib + Vorinostat; first compound 0.01581 µM) | relative viability (Alisertib + Vorinostat; first compound 0.05 µM) | relative viability (Alisertib + Vorinostat; first compound 0.1581 µM) | relative viability (Alisertib + Vorinostat; first compound 0.5 µM) | relative viability (Alisertib + Alpelisib; first compound 0.005 µM) | relative viability (Alisertib + Alpelisib; first compound 0.01581 µM) | relative viability (Alisertib + Alpelisib; first compound 0.05 µM) | relative viability (Alisertib + Alpelisib; first compound 0.1581 µM) | relative viability (Alisertib + Alpelisib; first compound 0.5 µM) | relative viability (Alisertib + Navitoclax; first compound 0.005 µM) | relative viability (Alisertib + Navitoclax; first compound 0.01581 µM) | relative viability (Alisertib + Navitoclax; first compound 0.05 µM) | relative viability (Alisertib + Navitoclax; first compound 0.1581 µM) | relative viability (Alisertib + Navitoclax; first compound 0.5 µM) | relative viability (Alisertib + Linsitinib; first compound 0.005 µM) | relative viability (Alisertib + Linsitinib; first compound 0.01581 µM) | relative viability (Alisertib + Linsitinib; first compound 0.05 µM) | relative viability (Alisertib + Linsitinib; first compound 0.1581 µM) | relative viability (Alisertib + Linsitinib; first compound 0.5 µM) |
| --- | --- | --- | --- | --- | --- | --- | --- | --- | --- | --- | --- | --- | --- | --- | --- | --- | --- | --- | --- | --- |
| UMC-11 | 0.262 | 0.169 | 0.113 | 0.118 | 0.161 | 0.736 | 0.194 | 0.137 | 0.135 | 0.103 | 0.241 | 0.163 | 0.121 | 0.115 | 0.125 | 0.755 | 0.495 | 0.168 | 0.148 | 0.158 |
| LU99A | 0.467 | 0.428 | 0.177 | 0.16 | 0.187 | 0.493 | 0.455 | 0.181 | 0.163 | 0.154 | 0.846 | 0.634 | 0.206 | 0.211 | 0.123 | 0.532 | 0.511 | 0.193 | 0.177 | 0.168 |
| A-427 | 0.603 | 0.41 | 0.313 | 0.27 | 0.262 | 1.03 | 0.922 | 0.173 | 0.165 | 0.14 | 0.897 | 0.907 | 0.26 | 0.167 | 0.158 | 1.07 | 0.986 | 0.257 | 0.202 | 0.184 |
| COR-L 105 | 0.687 | 0.701 | 0.496 | 0.302 | 0.321 | 0.741 | 0.849 | 0.71 | 0.343 | 0.245 | 0.909 | 0.686 | 0.532 | 0.273 | 0.287 | 0.879 | 0.722 | 0.682 | 0.332 | 0.241 |
| NCI-H441 | 0.692 | 0.723 | 0.373 | 0.217 | 0.185 | 0.787 | 0.528 | 0.172 | 0.153 | 0.157 | 0.925 | 0.365 | 0.106 | 0.158 | 0.132 | 0.504 | 0.333 | 0.243 | 0.129 | 0.129 |
| NCI-H2126 | 0.682 | 0.802 | 0.366 | 0.207 | 0.198 | 0.746 | 0.746 | 0.384 | 0.322 | 0.246 | 0.819 | 0.874 | 0.574 | 0.276 | 0.266 | 0.709 | 0.752 | 0.467 | 0.342 | 0.256 |
| HCC-44 | 1.05 | 0.784 | 0.397 | 0.387 | 0.339 | 0.759 | 0.716 | 0.458 | 0.17 | 0.0925 | 1.04 | 0.949 | 0.509 | 0.412 | 0.14 | 0.73 | 0.683 | 0.42 | 0.328 | 0.113 |
| NCI-H460 | 0.683 | 0.527 | 0.0348 | 0.039 | 0.0281 | 0.456 | 0.451 | 0.149 | 0.0179 | 0.0099 | 1.13 | 0.815 | 0.471 | 0.0264 | 0.0172 | 0.786 | 0.54 | 0.162 | 0.027 | 0.0144 |
| SW 1573 | 0.803 | 0.288 | 0.239 | 0.233 | 0.109 | 0.768 | 0.798 | 0.455 | 0.272 | 0.171 | 0.954 | 0.737 | 0.219 | 0.0904 | 0.0636 | 0.856 | 0.824 | 0.649 | 0.176 | 0.143 |
| NCI-H322M | 0.806 | 0.864 | 0.772 | 0.502 | 0.514 | 0.64 | 0.794 | 0.857 | 0.476 | 0.303 | 1.16 | 1.3 | 1.13 | 0.576 | 0.35 | 0.895 | 0.883 | 0.435 | 0.459 | 0.356 |
| EKVX | 0.684 | 0.551 | 0.285 | 0.263 | 0.319 | 0.819 | 0.811 | 0.49 | 0.215 | 0.185 | 0.924 | 0.837 | 0.589 | 0.162 | 0.15 | 0.942 | 0.831 | 0.344 | 0.211 | 0.183 |
| NCI-H1734 | 0.604 | 0.519 | 0.302 | 0.221 | 0.189 | 0.623 | 0.628 | 0.444 | 0.253 | 0.239 | 0.851 | 0.782 | 0.366 | 0.164 | 0.0931 | 0.869 | 0.86 | 0.469 | 0.334 | 0.213 |
| NCI-H520 | 0.588 | 0.455 | 0.325 | 0.276 | 0.208 | 0.966 | 0.766 | 0.429 | 0.323 | 0.273 | 1.19 | 0.66 | 0.386 | 0.272 | 0.251 | 0.805 | 0.667 | 0.423 | 0.308 | 0.22 |
| EPLC-272H | 0.454 | 0.401 | 0.248 | 0.104 | 0.132 | 0.858 | 0.838 | 0.486 | 0.266 | 0.133 | 1.11 | 0.962 | 0.368 | 0.346 | 0.147 | 0.998 | 0.865 | 0.921 | 0.3 | 0.131 |
| NCI-H596 | 0.514 | 0.655 | 0.616 | 0.488 | 0.311 |  | 0.478 | 0.481 | 0.351 | 0.172 |  | 0.906 | 1.07 | 0.808 | 0.199 |  | 1.02 | 0.969 | 0.967 | 0.404 |
| NCI-H1993 | 0.63 | 0.436 | 0.395 | 0.372 | 0.339 | 0.625 | 0.652 | 0.538 | 0.625 | 0.573 | 1.12 | 1.04 | 0.463 | 0.499 | 0.542 | 0.685 | 0.659 | 0.606 | 0.613 | 0.578 |
